Experimental data: patent US6365634B1, “Naturally occurring compounds and their derivatives as cyclooxygenase 2 and/or 5-lipoxygenase inhibitors” (C-P Technology Limited Partnership, priority 1997, dated 2002)

Experiments:
human recombinant COX II = target: T1, human recombinant COX II (Homo sapiens, UniProt P35354); experiment: COX II biochemical assay (3H-arachidonic acid conversion, TLC quantitation)
T1 construct: purchased Oxford Chemical
T1 sequence (P35354 18-604): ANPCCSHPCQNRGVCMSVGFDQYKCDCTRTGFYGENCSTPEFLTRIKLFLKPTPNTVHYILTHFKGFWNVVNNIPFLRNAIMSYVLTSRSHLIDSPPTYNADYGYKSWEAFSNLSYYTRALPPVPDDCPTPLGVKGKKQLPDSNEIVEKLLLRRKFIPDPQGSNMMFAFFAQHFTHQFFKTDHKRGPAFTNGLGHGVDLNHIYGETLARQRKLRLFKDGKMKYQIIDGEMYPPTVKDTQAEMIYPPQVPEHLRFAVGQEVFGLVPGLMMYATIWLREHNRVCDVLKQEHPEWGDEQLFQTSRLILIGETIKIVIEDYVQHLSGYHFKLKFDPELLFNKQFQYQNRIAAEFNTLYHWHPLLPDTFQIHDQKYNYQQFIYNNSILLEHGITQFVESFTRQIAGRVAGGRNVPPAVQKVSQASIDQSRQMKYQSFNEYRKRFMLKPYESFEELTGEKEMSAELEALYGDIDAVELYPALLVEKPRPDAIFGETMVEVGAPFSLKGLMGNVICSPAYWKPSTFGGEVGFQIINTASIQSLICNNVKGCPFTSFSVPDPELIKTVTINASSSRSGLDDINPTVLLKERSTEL
Procedure: Two units of recombinant COX II enzyme (corresponding to 0.8 ug total protein) was added followed by 5 uL aliquots of the peat bog extracts yielding a final concentration of the peat extracts of 25 ug/ml. All samples were run in duplicate. […] Reactions were initiated by the addition of ^3H-arachidonic acid (DuPont-NEN) at a final concentration of 50 uM. The reactions were maintained for 5 minutes at 37° C. and stopped by the addition of ice-cold methanol/acetic acid (10:1 v/v).
The assessment of cyclooxygenase activity (both COX I and II) in the presence and absence of the peat bog extracts was based on the quantitation of tlhe radiolabeled arachidonic acid metabolites prostaglandin A2 (PGA2), PGE2, and PGF2-alpha. To do this, a 50 uL sample of each reaction solution was separated via TLC on LK6DF silica plates co-spotted with arachidonic acid, PGA2, and PGF2-alpha and developed in hexane/isopropyl alcohol/ acetic acid (85:15:1 v/v). The bands were visualized by UV-vis or I2 staining and scraped into scintillation vials for quantitation. […] The total enzyme activity (At), the corrected enzyme activity in the presence of an inhibitor (Ai), and % inhibition were calculated by the following equations:
3) Percent Inhibition=100 (1−Ai/ At)

human keratinocytes = experiment: Lactate dehydrogenase (LDH) release toxicity assay; type: cell-based; conditions: highest value of any culture treated with 5, 1.0, 0.2 or 0.04 uM
Procedure: To address the possibility that the inhibition of both PGE2 and LTB4 production by human keratinocytes treated with dehydroabietic acid methyl ester was […], a cell lactate dehydrogenase toxicity assay (Fisher Scientific) was performed. Briefly, lactate dehydrogenase (LDH) is found intracellularly and is released only in response to toxic stimuli and/or cell death. The amount of LDH released into the media of cultured cells is indicative of the degree of toxicity occurring in that culture. To do the assay, 48-well plates of cultured human keratinocytes (as described above for the PGE2 assay) were prepared and treated with the same concentrations of dehydroabietic acid methyl ester as described above for the PGE2 and LTB4 assays. One hour prior to harvesting culture media samples from wells treated with dehydroabietic acid methyl ester, duplicate wells were treated with a cell lysis buffer (Fisher Scientific) that caused 100% cell death to occur in the treated wells. After culture media samples were collected from all wells, the amount of LDH present in each was determined using a colorometric assay (Fisher Scientific). […] The amount of LDH released into the media of cultures treated with dehydroabietic acid methyl ester as well as vehicle-control media was determined using the colorometric assay and expressed as a percentage of that released by the 100% cell death wells.
To address the possibility that the inhibition of PGE2 production by human keratinocytes treated with 4-cumylphenol was due to toxicity, a cell lactate dehydrogenase toxicity assay (Fisher Scientific) was performed. […] After culture media samples were collected from all wells, the amount of LDH present in each was determined using a colorometric assay (Fisher Scientific). […] The amount of LDH released into the media of cultures treated with dehydroabietic acid methyl ester as well as vehicle-control media was determined using the colorometric assay and expressed as a percentage of that released by the 100% cell death wells. […]

Row | Compound | Percent Inhibition of COX II (human recombinant COX II; pure 4-cumylphenol, assay as Example 2B, concentration not given) [%] | percent toxicity (LDH released) versus the 100% cell death control (human keratinocytes) [%] | inhibited COX II preferentially over COX I by (human recombinant COX II; 250 uM, difference of percent inhibition COX II versus COX I) | Percent Inhibition of COX II (human recombinant COX II; final concentration of 250 uM) [%]
1 | CC(C)(c1ccccc1)c1ccc(O)cc1 [4-Cumylphenol, 4-cumylphenol] | 22.4 | ≤ 12.7 | – | –
2 | COC(=O)[C@]1(C)CCC[C@]2(C)c3ccc(C(C)C)cc3CC[C@@H]12 [Dehydroabietic acid methyl ester, dehydroabietic acid methyl ester] | – | ≤ 12 | over 30% | 31.5
